This note sets out measurements from article PMC6452685, “Lysyl-tRNA synthetase as a drug target in malaria and cryptosporidiosis” (Proceedings of the National Academy of Sciences of the …, 2019).

Each structure is given as a SMILES string.

As usually defined, the EC50 is the concentration that produces a half-maximal response. A higher EC50 goes with a need for much substance. For orientation: IC50 means the concentration that inhibits the measured activity by half. One may read the Ki as the equilibrium dissociation constant of an inhibitor or competing ligand from its target.

The subject of assay [1] is P. falciparum stage V gametocytes. Put plainly: P. falciparum stage V gametocytes. Type of assay: cell-based. The settings on record: Plasmodium falciparum.
Protocol: Thi s is a modification of the previously reported method (13). Asexual P. falciparum paras i t es (NF54) from a cl one G 3 w ere g row n at 5% hemat ocri t i n O+ human ery t hrocy t es i n s erum-contai ni ng compl ete medi a (RPMI 1640, g entami ci n 0. 05 mg /ml , hy pox anthi ne 0. 05 mg/ml, HEPES 38.4 mM , sodium bicarbonate 0.2% [w/v], D-glucose 0.2% [w/v], sodium hydroxide 3.4 mM, 11.9% [w/v] heat-inactivated human serum [O+] and at 37 °C un de r l ow-ox y g en con di t i ons (3% O2, 5% C O2, and 92% N2) and a paras i temi a between 0. 5% and 3%. Ri ng-stage parasites were synchronized at 3%
paras i t aemi a (d-6) w i t h 5% (w /v ) D-Sorbi tol . On day −4, 45ml of compl ete medi a was added to the
cul ture fl as k to s tres s vi a hematocri t drop now at 2. 5%. The o n d-3 an d d-2 onl y 45 ml o f the medi a
was substituted for fres h medi a.
Another assay addresses T1, CYP1A2 (Homo sapiens, UniProt P05177).
T1 construct: purchased Cypex, Dundee, UK; host or cells: bacterial membranes (bactosomes)
Put plainly: Fluorescence-based CYP inhibition, CYP1A2. It is filed as in vitro ADME. On the procedure: 4.7 F lu or e s ce nce-based CYP I nhibition usin g recombinantly expressed CYP b actosomes Fl uorogeni c C YP i nhi bi t i on s t udi es w ere c ondu ct ed at 37 °C i n 96-well, flat-bot t om, cl ear p ol y s t y rene pl at es. I ncubat i on mi xt ures cont ai ni ng Eas y C YP bact os omes (1000 pmol /ml , 10 mg /ml C y pex TM, Dundee, UK), fl uorogeni c substrate (Cypex TM) and 50 mM potas s i um phosphat e buffer (p H 7. 4) w er e prepared at t he fol l ow i ng fi nal concent rat i ons : C YP1A2, 5 pmol /ml + 35 µ M et hox y res orufi n (ER) ; CYP2C9, 10 pm ol/ml + 30 µM 7-methoxy-4-(tri fl uo romethy l )-coumari n (MFC ); C YP 2C 19, 5 pm ol /ml + 25 µM 3-cy ano-7-eth oxycoumarin (CEC); C YP 2D 6, 10 pmol /ml + 6 µM 7-meth oxy-4-(ami nomethy l )- coumari n (MAMC ); C YP 3A4, 10 pmol /ml + 1 µM diethoxyfluorescein (DEF) and 10 pmol /ml + 15 µM 7-benz y l ox y qui nol i ne (BQ ). […] 0125 ( 1A2 and 2C 9 onl y ) o r 0. 025 mg /ml (al l ot her i s oforms ). […] Positive control inhibitor, miconazole, was prepared as a 500 µM s olution in DMSO and similarly diluted.
For eac h i sofo rm, 2 20 µl of i ncubati on mi x was added to each wel l of a 96-well, flat-bot t om, cl ear pol y s t y rene pl at e. Al i quot s (5 µl) of each compound 5 conce ntrati on was then mi x ed wi th 220 µl of the incubation mix and pre-incubated at 37 °C for 5 min (final test compound concentration range: […]

The next assay addresses PfKRS1 (Plasmodium falciparum, UniProt Q8IDJ8). The assay can be described thus: PfKRS1 mode of inhibition, pyrophosphate generation (EnzChek). Type of assay: biochemical. Also on record: recombinant PfKRS1 (77–583 and 80–583); His (N); MBP (with TEV site) (N); made in house; host or cells: E. coli BL21 (DE3); codon-optimised gene from Genscript. On the procedure:
SUPPLEMENTARY INFORMATION glycerol pH 7.5/protease inhibitor tablets/DNAase) was added and the pellets for defrosted at room temperature for approximately 10 min. The slurry was then passed through a Cell Disrupter (Constant Systems) set at 30 KPSI to l yse the cel ls. The s ample w as t hen cent ri fug ed at 40, 000g for 2 0 mi n. The supernatant was then filtered using syringe filters to 0.45 µm. The s upernat ant w as l oaded ont o a 5 ml Hi Trap Ni HP col umn that had been eq ui l i brated wi th Buffer A (25 m M HEP ES /5 00 m M NaC l /2 0 mM Imi dazol e/2 mM DTT/10% Gl ycerol pH 7.5) at 5 ml /mi n usi ng an AKTA Pure system. Once l oaded the column was washed with 10 column volumes buffer A. A 5% step of Buf fer B (25 mM HEPES /50 0 mM NaC l /500 mM I mi daz ol e/2mM D TT/ 10% Glycerol pH 7.5) was then used to wash off His rich contami nati ng protei ns . […]
2.5 PfKR S1, CpKRS and HsKR S Pyr oph osphate Ge ne r ation EnzChe kTM Ki ne tic M e asur e me nts Steady-state kinetic measurements were conduc ted at room temperature using a PheraStar plate re a de r (BM G ). End-poi nt s fo r t he ami noacy l at i on react i on of PfKRS1, which produces inorganic py roph os phat e t hat i s conv ert ed t o t w o mol ecules of i norg ani c phos phat e us i ng a py rophos phat as e enzyme, were measured usi ng the EnzChek™ Pho sphate Assay Ki t, whi ch gives an absorbance read - out at 36 0 nm. […] The reaction was carried out for 6 h (PfKRS1 an d CpKRS) or 1 2 h (HsKRS) at ro om temperature and then the absorbance o f each wel l was read at 360 nm. The s ubs t rat es Km values were determined by varying the concentration of one of the substrates at saturati ng concentrati on of the othe r. […]
where V is the maximal velocity (here expressed as µM/min of phosphate production), S is the substrate concentration a nd K is the Michaelis constant for the substrate (Km). […]

Chain of PfKRS1 (Q8IDJ8 entry or part of it): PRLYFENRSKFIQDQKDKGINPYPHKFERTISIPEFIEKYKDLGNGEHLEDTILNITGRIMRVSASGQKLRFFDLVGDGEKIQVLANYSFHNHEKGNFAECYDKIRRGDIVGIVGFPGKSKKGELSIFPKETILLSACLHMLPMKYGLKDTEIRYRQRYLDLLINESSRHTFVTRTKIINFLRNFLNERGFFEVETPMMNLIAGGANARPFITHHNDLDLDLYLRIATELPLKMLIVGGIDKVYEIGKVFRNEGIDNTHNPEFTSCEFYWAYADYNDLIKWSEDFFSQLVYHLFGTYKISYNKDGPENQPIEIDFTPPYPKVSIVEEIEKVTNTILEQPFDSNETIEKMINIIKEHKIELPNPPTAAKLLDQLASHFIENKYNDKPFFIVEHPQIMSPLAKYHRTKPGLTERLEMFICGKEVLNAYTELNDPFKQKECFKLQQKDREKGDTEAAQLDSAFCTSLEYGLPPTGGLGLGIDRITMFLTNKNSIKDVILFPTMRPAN
T1 sequence (P05177 whole entry): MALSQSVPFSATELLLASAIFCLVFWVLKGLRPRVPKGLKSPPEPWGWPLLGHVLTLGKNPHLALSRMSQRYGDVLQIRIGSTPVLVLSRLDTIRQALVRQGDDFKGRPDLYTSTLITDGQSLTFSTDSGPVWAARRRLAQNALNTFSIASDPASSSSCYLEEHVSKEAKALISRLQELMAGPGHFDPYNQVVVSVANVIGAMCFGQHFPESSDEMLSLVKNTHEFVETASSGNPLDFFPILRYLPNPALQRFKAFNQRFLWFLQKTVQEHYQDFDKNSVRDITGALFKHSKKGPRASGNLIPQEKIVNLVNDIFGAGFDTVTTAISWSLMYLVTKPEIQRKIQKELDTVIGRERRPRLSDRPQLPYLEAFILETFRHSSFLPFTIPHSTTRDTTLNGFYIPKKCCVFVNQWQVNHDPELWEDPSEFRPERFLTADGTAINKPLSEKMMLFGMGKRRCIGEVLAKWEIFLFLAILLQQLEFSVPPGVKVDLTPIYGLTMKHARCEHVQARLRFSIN

Compound `O=C(NCC1(O)CCC(F)(F)CC1)c1cc(=O)c2cc(F)ccc2o1` [Compound 5] returned an EC50 in assay [1] of 9.9 µM. The IC50 at CYP1A2 is > 10 µM; on PfKRS1 (saturating concentrations of both substrates), 210 nM. The “Ki, linear uncompetitive inhibition vs. L-lysine” value at PfKRS1 (EnzChek, saturating ATP) is 212 nM. Also, the Ki at PfKRS1 (EnzChek, saturating L-lysine, read-out: Ki, linear competitive inhibition vs. ATP) was determined as 32 nM.
